Measurements published in ChEMBL document CHEMBL1201862, “PubChem BioAssay data set” (2004).
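Tested at 5 concentrations; 48 h exposure; 96-well plates; endpoints linearly interpolated, else capped at highest concentration. Abbreviation: GI50, concentration required for 50% inhibition of growth.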 Activity calls are given as the source filed them. Cut-off read from the data, not from the text of the source: active = GI50 up to about 1.1 µM and inactive = higher.

Columns and labels:
Experiment in all cases: growth of human tumour cells (NCI), 48 h
SF-268 = system: SF-268
CAKI-1 = system: CAKI-1
MOLT-4 = system: MOLT-4
Malme-3M = system: Malme-3M
KM12 = system: KM12
ACHN = system: ACHN
LOX IMVI = system: LOX IMVI
HOP-62 = system: HOP-62
CCRF-CEM = system: CCRF-CEM
DU-145 = system: DU-145
SK-OV-3 = system: SK-OV-3
OVCAR-4 = system: OVCAR-4
MDA-MB-435 = system: MDA-MB-435
NCI-H522 = system: NCI-H522
BT-549 = system: BT-549
K562 = system: K562
HL-60 = system: HL-60
SW-620 = system: SW-620
HOP-92 = system: HOP-92
UACC-62 = system: UACC-62

| SMILES | GI50 (SF-268) | GI50 (CAKI-1) | GI50 (MOLT-4) | GI50 (Malme-3M) | GI50 (KM12) | GI50 (ACHN) | GI50 (LOX IMVI) | GI50 (HOP-62) | GI50 (CCRF-CEM) | GI50 (DU-145) | GI50 (SK-OV-3) | GI50 (OVCAR-4) | GI50 (MDA-MB-435) | GI50 (NCI-H522) | GI50 (BT-549) | GI50 (K562) | GI50 (HL-60) | GI50 (SW-620) | GI50 (HOP-92) | GI50 (UACC-62) |
| --- | --- | --- | --- | --- | --- | --- | --- | --- | --- | --- | --- | --- | --- | --- | --- | --- | --- | --- | --- | --- |
| COc1cc(C(CN)N(C)C)cc(OC)c1OC (stereo not given) | > 100 µM (inactive) | > 100 µM (inactive) | > 100 µM (inactive) | > 100 µM (inactive) | > 100 µM (inactive) | > 100 µM (inactive) | > 100 µM (inactive) | > 100 µM (inactive) | > 100 µM (inactive) | > 100 µM (inactive) | > 100 µM (inactive) | > 100 µM (inactive) | > 100 µM (inactive) | > 100 µM (inactive) | > 100 µM (inactive) | > 100 µM (inactive) | > 100 µM (inactive) | > 100 µM (inactive) | > 100 µM (inactive) | > 100 µM (inactive) |
| CN(/N=C\c1ccc2ccccc2c1)C1=NCCCCN1 | 34.4 µM (inactive) | 11.8 µM (inactive) | 17.6 µM (inactive) | 14.9 µM (inactive) | 20.9 µM (inactive) | 33.7 µM (inactive) | 13.6 µM (inactive) | 19.2 µM (inactive) | 23.3 µM (inactive) | 54.2 µM (inactive) | 22.1 µM (inactive) | 30.2 µM (inactive) | 18.2 µM (inactive) | 16.7 µM (inactive) | 14.6 µM (inactive) | 17.4 µM (inactive) | 15.1 µM (inactive) | 17.9 µM (inactive) | 0.124 µM (active) | 27.2 µM (inactive) |
| CC1=C(C)C1[N+](=O)[O-] | > 100 µM (inactive) | > 100 µM (inactive) | > 100 µM (inactive) | 82.6 µM (inactive) | > 100 µM (inactive) | > 100 µM (inactive) | > 100 µM (inactive) | > 100 µM (inactive) | > 100 µM (inactive) | > 100 µM (inactive) | > 100 µM (inactive) | > 100 µM (inactive) | > 100 µM (inactive) | > 100 µM (inactive) | > 100 µM (inactive) | > 100 µM (inactive) | 43.9 µM (inactive) | > 100 µM (inactive) | > 100 µM (inactive) | > 100 µM (inactive) |
| COc1ccc2c(c1)O[C@@H]1[C@@H](OC3OC(CO)C(O)C(O)C3O)Oc3cc(OC)c(OC)cc3[C@]1(O)C2=O (stereo not given in full) | > 100 µM (inactive) | > 100 µM (inactive) | > 100 µM (inactive) | > 100 µM (inactive) | > 100 µM (inactive) | > 100 µM (inactive) | > 100 µM (inactive) | > 100 µM (inactive) | > 100 µM (inactive) | > 100 µM (inactive) | > 100 µM (inactive) | > 100 µM (inactive) | > 100 µM (inactive) | > 100 µM (inactive) | > 100 µM (inactive) | > 100 µM (inactive) | 1.11 µM (active) | 17.5 µM (inactive) | > 100 µM (inactive) | > 100 µM (inactive) |
